The experiment concerns BDF1 mice, P388 leukemia ip, median survival T/C. The experiment in a line: NCI In Vivo Anticancer Drug Screen. Data for tumor model P388 Leukemia (intraperitoneal) in B6D2F1 (BDF1) mice. Conditions: endpoint: median survival time, higher = longer survival. The gist of the method:
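Read-out is survival of treated animals expressed relative to the vehicle group, as a T/C ratio.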

Setting [1] is: dose: 50.0 mg/kg/injection, schedule: Q01DX009 (ip), vehicle: Klucel (hydroxypropylcellulose) (HPC).
Setting [2] is: dose: 100.0 mg/kg/injection, schedule: Q04DX003 (ip), vehicle: saline with Tween-80.
Setting [3] is: dose: 200.0 mg/kg/injection, schedule: Q04DX003 (ip), vehicle: saline with Tween-80.
[4] abbreviates: dose: 400.0 mg/kg/injection, schedule: Q04DX003 (ip), vehicle: saline with Tween-80.
The mark [5] stands for this setting: dose: 25.0 mg/kg/injection, schedule: Q01DX009 (ip), vehicle: Klucel (hydroxypropylcellulose) (HPC).
Setting [6] is: dose: 100.0 mg/kg/injection, schedule: Q04DX003 (ip), vehicle: Klucel (hydroxypropylcellulose) (HPC).
Where [7] appears, read: dose: 50.0 mg/kg/injection, schedule: Q01DX009 (ip), vehicle: saline with Tween-80.
The mark [8] stands for this setting: dose: 100.0 mg/kg/injection, schedule: Q01DX009 (ip), vehicle: saline with Tween-80.
The mark [9] stands for this setting: dose: 200.0 mg/kg/injection, schedule: Q01DX009 (ip), vehicle: saline with Tween-80.
Where [10] appears, read: dose: 200.0 mg/kg/injection, schedule: Q01DX009 (ip), vehicle: Klucel (hydroxypropylcellulose) (HPC).

“And” between values parts separate entries of the source, which are not always exact repeats. Identical values can stand only once. Inconclusive results and toxic doses are left out.

Regarding `CN(C)CC1CCC/C(=C\C=C\c2ccccc2)C1=O` (centres undefined), the T/C was 104 % of control and 113 % of control (dose: 4.37 mg/kg/injection, schedule: Q01DX009 (ip), vehicle: Klucel (hydroxypropylcellulose) (HPC)); 109 % of control (dose: 8.75 mg/kg/injection, schedule: Q01DX009 (ip), vehicle: Klucel (hydroxypropylcellulose) (HPC)); 109 % of control and 118 % of control (dose: 17.5 mg/kg/injection, schedule: Q01DX009 (ip), vehicle: Klucel (hydroxypropylcellulose) (HPC)); 120 % of control (dose: 35.0 mg/kg/injection, schedule: Q01DX009 (ip), vehicle: Klucel (hydroxypropylcellulose) (HPC)); 120 % of control under setting [1]; 120 % of control (dose: 75.0 mg/kg/injection, schedule: Q01DX009 (ip), vehicle: Klucel (hydroxypropylcellulose) (HPC)).
Consider `COc1cc(C(Cc2ccnc3ccccc23)Cc2ccnc3ccccc23)ccc1N(C)C`, for which the T/C reads like this: under setting [2], 91 % of control; under setting [3], 104 % of control; under setting [4], 115 % of control.
For the compound `O=C(O)c1ccccc1CBr`, the T/C runs as follows: (dose: 100.0 mg/kg/injection, schedule: Q04DX003 (ip), vehicle: saline sonified) 104 % of control; (dose: 200.0 mg/kg/injection, schedule: Q04DX003 (ip), vehicle: saline sonified) 104 % of control; (dose: 400.0 mg/kg/injection, schedule: Q04DX003 (ip), vehicle: saline sonified) 100 % of control.
In the case of `O[C@H](CN1CC1)[C@@H](O)CN1CC1`, the T/C runs as follows: (dose: 62.5 micrograms/kg/injection, schedule: Q01DX010 (ip), vehicle: saline) 235 % of control; (dose: 125.0 micrograms/kg/injection, schedule: Q01DX010 (ip), vehicle: saline) 230 % of control and 186 % of control; (dose: 250.0 micrograms/kg/injection, schedule: Q01DX010 (ip), vehicle: saline) 227 % of control and 187 % of control; (dose: 500.0 micrograms/kg/injection, schedule: Q01DX010 (ip), vehicle: saline) 116 % of control and 122 % of control.
Take `CC1CC2CCCCN2O1` (centres undefined): the T/C is 102 % of control (dose: 100.0 mg/kg/injection, schedule: Q04DX002 (ip), vehicle: saline with Tween-80); 103 % of control (dose: 200.0 mg/kg/injection, schedule: Q04DX002 (ip), vehicle: saline with Tween-80); 105 % of control (dose: 400.0 mg/kg/injection, schedule: Q04DX002 (ip), vehicle: saline with Tween-80).
`CNc1ccc(/C=C2\C=Cc3ccccc32)cc1`: the T/C (dose: 12.0 mg/kg/injection, schedule: Q01DX009 (ip), vehicle: Klucel (hydroxypropylcellulose) (HPC)) was 118 % of control; the T/C (dose: 12.0 mg/kg/injection, schedule: Q01DX009 (ip), vehicle: gum acacia) was 107 % of control; the T/C (dose: 12.5 mg/kg/injection, schedule: Q04DX003 (ip), vehicle: gum acacia) is 103 % of control; the T/C under setting [5] was 100 % of control; the T/C (dose: 25.0 mg/kg/injection, schedule: Q01DX009 (ip), vehicle: gum acacia) was 103 % of control; the T/C (dose: 25.0 mg/kg/injection, schedule: Q04DX003 (ip), vehicle: Klucel (hydroxypropylcellulose) (HPC)) was 104 % of control. Moreover, the T/C (dose: 25.0 mg/kg/injection, schedule: Q04DX003 (ip), vehicle: gum acacia) is 100 % of control; the T/C under setting [1] was 90 % of control; the T/C (dose: 50.0 mg/kg/injection, schedule: Q01DX009 (ip), vehicle: gum acacia) is 92 % of control; the T/C (dose: 50.0 mg/kg/injection, schedule: Q04DX003 (ip), vehicle: Klucel (hydroxypropylcellulose) (HPC)) is 100 % of control; the T/C (dose: 50.0 mg/kg/injection, schedule: Q04DX003 (ip), vehicle: gum acacia) is 103 % of control; the T/C under setting [6] was 86 % of control and 95 % of control.
As for `C=CCN1C=CC(=C/C=C(\C#N)C(=O)OCC)C=C1`, the T/C by setting is: under setting [7], 99 % of control; under setting [8], 91 % of control; under setting [9], 99 % of control.
For `CC(C)(C)OC(=O)NC(CC(Cc1ccccc1)C(=O)O)C(=O)NC(CC(Cc1ccccc1)C(=O)O)C(=O)NC(CC(Cc1ccccc1)C(=O)O)C(=O)NCC(=O)Oc1ccc([N+](=O)[O-])cc1` (centres undefined), the T/C by setting is: (dose: 50.0 mg/kg/injection, schedule: Q01DX005 (ip), vehicle: saline with Tween-80) 86 % of control; (dose: 200.0 mg/kg/injection, schedule: Q01DX005 (ip), vehicle: saline with Tween-80) 104 % of control.
In the case of `Fc1ccc(NC(=S)SCc2ccc3c(c2)OCO3)cc1F`, the T/C (dose: 50.0 mg/kg/injection, schedule: Q01DX009 (ip), vehicle: saline + alcohol) is 116 % of control; the T/C under setting [7] was 109 % of control; the T/C (dose: 100.0 mg/kg/injection, schedule: Q01DX009 (ip), vehicle: saline + alcohol) is 116 % of control; the T/C under setting [8] is 116 % of control; the T/C under setting [9] was 155 % of control.
`C[C@]12CC[C@@H]3c4ccccc4CC[C@H]3[C@@H]1CC[C@@H]2O`: the T/C runs as follows: under setting [2], 90 % of control; under setting [3], 90 % of control; under setting [4], 100 % of control.
`O=C1CC(c2ccc(OCN(CCCl)CCCl)cc2)CC(=O)C1CN(CCCl)CCCl` (centres undefined): the T/C (dose: 0.5 mg/kg/injection, schedule: Q01DX009 (ip), vehicle: Klucel (hydroxypropylcellulose) (HPC)) was 124 % of control and the T/C (dose: 4.0 mg/kg/injection, schedule: Q01DX009 (ip), vehicle: Klucel (hydroxypropylcellulose) (HPC)) is 160 % of control.
Take `NC(Cc1c[nH]c2cc(N(CCCl)CCCl)ccc12)C(=O)O` (centres undefined): the T/C is 115 % of control (dose: 0.75 mg/kg/injection, schedule: Q01DX009 (sc), vehicle: olive oil, sesame oil, peanut oil); 123 % of control (dose: 1.5 mg/kg/injection, schedule: Q01DX009 (sc), vehicle: olive oil, sesame oil, peanut oil); 113 % of control (dose: 1.5 mg/kg/injection, schedule: Q04DX003 (sc), vehicle: olive oil, sesame oil, peanut oil); 100 % of control (dose: 3.0 mg/kg/injection, schedule: Q01DX009 (sc), vehicle: olive oil, sesame oil, peanut oil); 177 % of control (dose: 3.0 mg/kg/injection, schedule: Q04DX003 (sc), vehicle: olive oil, sesame oil, peanut oil); 162 % of control (dose: 4.5 mg/kg/injection, schedule: Q04DX003 (sc), vehicle: olive oil, sesame oil, peanut oil). For the same compound, the T/C (dose: 6.0 mg/kg/injection, schedule: Q04DX003 (sc), vehicle: olive oil, sesame oil, peanut oil) was 154 % of control.
Turning to `CN(C)P(=O)(Oc1ccccc1)N(C)C`, the T/C by setting is: (dose: 25.0 mg/kg/injection, schedule: Q01DX009 (ip), vehicle: saline with Tween-80) 94 % of control; under setting [7], 120 % of control; under setting [8], 102 % of control and 103 % of control; under setting [9], 100 % of control.
Take `COC1CCC(OC2C(C)C(O)(C(C)C(=O)O)OC(CC3CC(OC)C(C)C4(O3)OC(C)(C3CCC(C5CCC(C6OC(C)(O)C(C)C(OC)C6C)O5)O3)C(OC)C4C)C2(C)OC)OC1C` (centres undefined): the T/C runs as follows: (dose: 0.62 mg/kg/injection, schedule: Q01DX009 (ip), vehicle: saline) 94 % of control; (dose: 1.25 mg/kg/injection, schedule: Q01DX009 (ip), vehicle: saline) 96 % of control.
Take `CCCCC(=O)c1cc(OC)cc(OC)c1`: the T/C is, setting by setting: under setting [10], 100 % of control; (dose: 400.0 mg/kg/injection, schedule: Q01DX009 (ip), vehicle: Klucel (hydroxypropylcellulose) (HPC)) 91 % of control.
For the compound `O=[N+]([O-])c1cc([N+](=O)[O-])c(Nn2c3ccccc3c3ccccc32)c([N+](=O)[O-])c1`, the T/C by setting is: (dose: 6.25 mg/kg/injection, schedule: Q01DX009 (ip), vehicle: Klucel (hydroxypropylcellulose) (HPC)) 100 % of control; (dose: 12.5 mg/kg/injection, schedule: Q01DX009 (ip), vehicle: Klucel (hydroxypropylcellulose) (HPC)) 90 % of control and 100 % of control; under setting [5], 100 % of control and 110 % of control; under setting [1], 120 % of control; (dose: 100.0 mg/kg/injection, schedule: Q01DX009 (ip), vehicle: Klucel (hydroxypropylcellulose) (HPC)) 100 % of control; under setting [6], 100 % of control. The T/C was 95 % of control under setting [10] and 113 % of control (dose: 200.0 mg/kg/injection, schedule: Q04DX003 (ip), vehicle: Klucel (hydroxypropylcellulose) (HPC)).

(Values after PubChem BioAssay AID328 (DTP/NCI, 2004).)
